≈ marks a conversion by molar mass, not a printed value.
How the values were obtained:
Type in all cases: functional
Aspergillus niger [1] = experiment: Antifungal activity against Aspergillus niger at 50 ug/ml after 48 hrs by agar well diffusion method; details: read-out: DIZ
Staphylococcus aureus [2] = experiment: Antibacterial activity against methicillin resistant Staphylococcus aureus MRSA090 at 75 ug/ml after 24 hrs by agar well diffusion method; details: MRSA090, 24 h, read-out: DIZ
Aspergillus niger [3] = experiment: Antifungal activity against Aspergillus niger at 100 ug/ml after 48 hrs by agar well diffusion method; details: read-out: DIZ
Aspergillus niger [4] = experiment: Antifungal activity against Aspergillus niger after 48 to 72 hrs by microdilution method
Staphylococcus aureus [5] = experiment: Antibacterial activity against methicillin resistant Staphylococcus aureus MRSA090 at 100 ug/ml after 24 hrs by agar well diffusion method; details: MRSA090, 24 h, read-out: DIZ
Klebsiella pneumoniae [6] = experiment: Antibacterial activity against Klebsiella pneumoniae at 25 ug/ml after 24 hrs by agar well diffusion method; details: read-out: DIZ
Staphylococcus aureus [7] = experiment: Antibacterial activity against Staphylococcus aureus at 25 ug/ml after 24 hrs by agar well diffusion method; details: read-out: DIZ
Staphylococcus aureus [8] = experiment: Antibacterial activity against methicillin resistant Staphylococcus aureus MRSA090 at 25 ug/ml after 24 hrs by agar well diffusion method; details: MRSA090, 24 h, read-out: DIZ
Klebsiella pneumoniae [9] = experiment: Antibacterial activity against Klebsiella pneumoniae at 75 ug/ml after 24 hrs by agar well diffusion method; details: read-out: DIZ
Klebsiella pneumoniae [10] = experiment: Antibacterial activity against Klebsiella pneumoniae incubated for overnight by microdilution method
Fusarium verticillioides [11] = experiment: Antifungal activity against Fusarium moniliforme at 25 ug/ml after 48 hrs by agar well diffusion method; details: read-out: DIZ
Staphylococcus aureus [12] = experiment: Antibacterial activity against methicillin resistant Staphylococcus aureus MRSA090 at 50 ug/ml after 24 hrs by agar well diffusion method; details: MRSA090, 24 h, read-out: DIZ
Fusarium oxysporum [13] = experiment: Antifungal activity against Fusarium oxysporum at 25 ug/ml after 48 hrs by agar well diffusion method; details: read-out: DIZ
Escherichia coli [14] = experiment: Antibacterial activity against Escherichia coli at 100 ug/ml after 24 hrs by agar well diffusion method; details: read-out: DIZ
Bacillus subtilis [15] = experiment: Antibacterial activity against Bacillus subtilis incubated for overnight by microdilution method
Klebsiella pneumoniae [16] = experiment: Antibacterial activity against Klebsiella pneumoniae at 50 ug/ml after 24 hrs by agar well diffusion method; details: read-out: DIZ
Fusarium oxysporum [17] = experiment: Antifungal activity against Fusarium oxysporum at 100 ug/ml after 48 hrs by agar well diffusion method; details: read-out: DIZ
Staphylococcus aureus [18] = experiment: Antibacterial activity against Staphylococcus aureus incubated for overnight by microdilution method
Bacillus subtilis [19] = experiment: Antibacterial activity against Bacillus subtilis at 100 ug/ml after 24 hrs by agar well diffusion method; details: read-out: DIZ
Bacillus subtilis [20] = experiment: Antibacterial activity against Bacillus subtilis at 50 ug/ml after 24 hrs by agar well diffusion method; details: read-out: DIZ
Escherichia coli [21] = experiment: Antibacterial activity against Escherichia coli at 50 ug/ml after 24 hrs by agar well diffusion method; details: read-out: DIZ
Fusarium verticillioides [22] = experiment: Antifungal activity against Fusarium moniliforme at 100 ug/ml after 48 hrs by agar well diffusion method; details: read-out: DIZ
Fusarium verticillioides [23] = experiment: Antifungal activity against Fusarium moniliforme at 75 ug/ml after 48 hrs by agar well diffusion method; details: read-out: DIZ
Aspergillus niger [24] = experiment: Antifungal activity against Aspergillus niger at 25 ug/ml after 48 hrs by agar well diffusion method; details: read-out: DIZ
Fusarium verticillioides [25] = experiment: Antifungal activity against Fusarium moniliforme after 48 to 72 hrs by microdilution method
Fusarium oxysporum [26] = experiment: Antifungal activity against Fusarium oxysporum at 50 ug/ml after 48 hrs by agar well diffusion method; details: read-out: DIZ
Bacillus subtilis [27] = experiment: Antibacterial activity against Bacillus subtilis at 25 ug/ml after 24 hrs by agar well diffusion method; details: read-out: DIZ
Fusarium oxysporum [28] = experiment: Antifungal activity against Fusarium oxysporum at 75 ug/ml after 48 hrs by agar well diffusion method; details: read-out: DIZ
Staphylococcus aureus [29] = experiment: Antibacterial activity against Staphylococcus aureus at 100 ug/ml after 24 hrs by agar well diffusion method; details: read-out: DIZ
Bacillus subtilis [30] = experiment: Antibacterial activity against Bacillus subtilis at 75 ug/ml after 24 hrs by agar well diffusion method; details: read-out: DIZ
Escherichia coli [31] = experiment: Antibacterial activity against Escherichia coli at 75 ug/ml after 24 hrs by agar well diffusion method; details: read-out: DIZ
Escherichia coli [32] = experiment: Antibacterial activity against Escherichia coli at 25 ug/ml after 24 hrs by agar well diffusion method; details: read-out: DIZ
Staphylococcus aureus [33] = experiment: Antibacterial activity against Staphylococcus aureus at 75 ug/ml after 24 hrs by agar well diffusion method; details: read-out: DIZ
Fusarium oxysporum [34] = experiment: Antifungal activity against Fusarium oxysporum after 48 to 72 hrs by microdilution method
Staphylococcus aureus [35] = experiment: Antibacterial activity against Staphylococcus aureus at 50 ug/ml after 24 hrs by agar well diffusion method; details: read-out: DIZ
Klebsiella pneumoniae [36] = experiment: Antibacterial activity against Klebsiella pneumoniae at 100 ug/ml after 24 hrs by agar well diffusion method; details: read-out: DIZ
Fusarium verticillioides [37] = experiment: Antifungal activity against Fusarium moniliforme at 50 ug/ml after 48 hrs by agar well diffusion method; details: read-out: DIZ
Aspergillus niger [38] = experiment: Antifungal activity against Aspergillus niger at 75 ug/ml after 48 hrs by agar well diffusion method; details: read-out: DIZ
Staphylococcus aureus [39] = experiment: Antibacterial activity against methicillin resistant Staphylococcus aureus MRSA090 incubated for overnight by microdilution method
Escherichia coli [40] = experiment: Antibacterial activity against Escherichia coli incubated for overnight by microdilution method

SMILES | zone of inhibition at 50 µg/mL (Aspergillus niger [1]) | zone of inhibition at 75 µg/mL (Staphylococcus aureus [2]) | zone of inhibition at 100 µg/mL (Aspergillus niger [3]) | MIC (Aspergillus niger [4]) | zone of inhibition at 100 µg/mL (Staphylococcus aureus [5]) | zone of inhibition at 25 µg/mL (Klebsiella pneumoniae [6]) | zone of inhibition at 25 µg/mL (Staphylococcus aureus [7]) | zone of inhibition at 25 µg/mL (Staphylococcus aureus [8]) | zone of inhibition at 75 µg/mL (Klebsiella pneumoniae [9]) | MIC (Klebsiella pneumoniae [10]) | zone of inhibition at 25 µg/mL (Fusarium verticillioides [11]) | zone of inhibition at 50 µg/mL (Staphylococcus aureus [12]) | zone of inhibition at 25 µg/mL (Fusarium oxysporum [13]) | zone of inhibition at 100 µg/mL (Escherichia coli [14]) | MIC (Bacillus subtilis [15]) | zone of inhibition at 50 µg/mL (Klebsiella pneumoniae [16]) | zone of inhibition at 100 µg/mL (Fusarium oxysporum [17]) | MIC (Staphylococcus aureus [18]) | zone of inhibition at 100 µg/mL (Bacillus subtilis [19]) | zone of inhibition at 50 µg/mL (Bacillus subtilis [20]) | also measured
COc1cc(/C=N/Nc2nc3cccc(C)c3s2)cc(OC)c1OC | 14 mm | 31 mm | 21 mm | 30 µg/mL (≈ 83.9 µM) | 34 mm | 21 mm | 22 mm | 19 mm | 33 mm | 22 µg/mL (≈ 61.5 µM) | 23 mm | 25 mm | 7 mm | 36 mm | 18 µg/mL (≈ 50.4 µM) | 27 mm | 20 mm | 19 µg/mL (≈ 53.2 µM) | 33 mm | 24 mm | zone of inhibition at 50 µg/mL (Escherichia coli [21]): 25 mm; zone of inhibition at 100 µg/mL (Fusarium verticillioides [22]): 37 mm; zone of inhibition at 75 µg/mL (Fusarium verticillioides [23]): 33 mm; zone of inhibition at 25 µg/mL (Aspergillus niger [24]): 9 mm; MIC (Fusarium verticillioides [25]): 26 µg/mL (≈ 72.7 µM); zone of inhibition at 50 µg/mL (Fusarium oxysporum [26]): 11 mm; zone of inhibition at 25 µg/mL (Bacillus subtilis [27]): 19 mm; zone of inhibition at 75 µg/mL (Fusarium oxysporum [28]): 17 mm; zone of inhibition at 100 µg/mL (Staphylococcus aureus [29]): 38 mm; zone of inhibition at 75 µg/mL (Bacillus subtilis [30]): 28 mm; zone of inhibition at 75 µg/mL (Escherichia coli [31]): 31 mm; zone of inhibition at 25 µg/mL (Escherichia coli [32]): 20 mm; zone of inhibition at 75 µg/mL (Staphylococcus aureus [33]): 33 mm; MIC (Fusarium oxysporum [34]): 23 µg/mL (≈ 64.3 µM); zone of inhibition at 50 µg/mL (Staphylococcus aureus [35]): 28 mm; zone of inhibition at 100 µg/mL (Klebsiella pneumoniae [36]): 38 mm; zone of inhibition at 50 µg/mL (Fusarium verticillioides [37]): 28 mm; zone of inhibition at 75 µg/mL (Aspergillus niger [38]): 20 mm; MIC (Staphylococcus aureus [39]): 19 µg/mL (≈ 53.2 µM); MIC (Escherichia coli [40]): 20 µg/mL (≈ 56 µM)
Cc1cccc2nc(N/N=C/c3cc(O)c(O)c(O)c3)sc12 | 14 mm | 33 mm | 23 mm | 28 µg/mL (≈ 88.8 µM) | 37 mm | 17 mm | 17 mm | 20 mm | 28 mm | 24 µg/mL (≈ 76.1 µM) | 10 mm | 26 mm | 15 mm | 37 mm | 15 µg/mL (≈ 47.6 µM) | 23 mm | 33 mm | 17 µg/mL (≈ 53.9 µM) | 35 mm | 22 mm | zone of inhibition at 50 µg/mL (Escherichia coli [21]): 20 mm; zone of inhibition at 100 µg/mL (Fusarium verticillioides [22]): 34 mm; zone of inhibition at 75 µg/mL (Fusarium verticillioides [23]): 26 mm; zone of inhibition at 25 µg/mL (Aspergillus niger [24]): 10 mm; MIC (Fusarium verticillioides [25]): 25 µg/mL (≈ 79.3 µM); zone of inhibition at 50 µg/mL (Fusarium oxysporum [26]): 22 mm; zone of inhibition at 25 µg/mL (Bacillus subtilis [27]): 14 mm; zone of inhibition at 75 µg/mL (Fusarium oxysporum [28]): 27 mm; zone of inhibition at 100 µg/mL (Staphylococcus aureus [29]): 31 mm; zone of inhibition at 75 µg/mL (Bacillus subtilis [30]): 27 mm; zone of inhibition at 75 µg/mL (Escherichia coli [31]): 26 mm; zone of inhibition at 25 µg/mL (Escherichia coli [32]): 14 mm; zone of inhibition at 75 µg/mL (Staphylococcus aureus [33]): 28 mm; MIC (Fusarium oxysporum [34]): 22 µg/mL (≈ 69.8 µM); zone of inhibition at 50 µg/mL (Staphylococcus aureus [35]): 24 mm; zone of inhibition at 100 µg/mL (Klebsiella pneumoniae [36]): 37 mm; zone of inhibition at 50 µg/mL (Fusarium verticillioides [37]): 17 mm; zone of inhibition at 75 µg/mL (Aspergillus niger [38]): 20 mm; MIC (Staphylococcus aureus [39]): 18 µg/mL (≈ 57.1 µM); MIC (Escherichia coli [40]): 19 µg/mL (≈ 60.2 µM)

Source: ChEMBL document CHEMBL4020788, “Synthesis, SAR and molecular docking studies of benzo[d]thiazole-hydrazones as potential antibacterial and antifungal agents” (2017)
